Data set [1] concerns K562 CRISPRi cells. Briefly: Perturb-seq pooled growth measurement (sgRNA counts, growth phenotype γ, relative activity). The note with it: for gamma_day5 / gamma_day10: pooled growth phenotype γ of the Perturb-seq sgRNA; for gamma_day5: day 5, K562 CRISPRi cells; for gamma_day10: day 10, K562 CRISPRi cells; for relative_activity_day5: γ relative to perfectly matched sgRNA (_00) of the same gene, day 5. It is filed as cell-based, human. Summed up: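 CRISPRi K562 cells from the Perturb-seq transduced pool; 500,000-cell samples taken days two, seven and twelve post-transduction. sgRNA amplicons from genomic DNA sequenced; growth phenotypes from normalized sgRNA abundances at days seven and twelve versus day two. Relative activity assigned from day seven (five days' growth).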

In data set [2] the test system is K562 CRISPRi cells. The data set is described as above. The note with it: γ relative to perfectly matched sgRNA (_00) of the same gene, day 10. Format: cell-based, human.

This note sets out measurements from patent US20220259593A1, “CONTROL OF MAMMALIAN GENE DOSAGE USING CRISPR” (The Regents of the University of California, priority 2019, published 2022).

In the data set with K562 CRISPRi cells [1], “TUBB_ + _30688126.23-P1_01 (guide GCAGCAGGAAGGTTCTGAGA; listed as DNA, chemistry not fully specified)” showed a gamma_day5 of −0.926, a gamma_day10 of −0.6119 and a relative_activity_day5 of 1.032. Besides, in the data set on K562 CRISPRi cells [2], the relative_activity_day10 is on record as 0.8743.
As for “TUBB_ + _30688126.23-P1_03 (guide GCGGCAGCAAGGTTCTGAGA; listed as DNA, chemistry not fully specified)”, in the data set with K562 CRISPRi cells [1], the gamma_day5 is recorded as −0.6926, the gamma_day10 is reported as −0.4959 and the relative_activity_day5 turned out to be 0.7721. The same substance gave a relative_activity_day10 in the data set on K562 CRISPRi cells [2] of 0.7085.
In the data set on K562 CRISPRi cells [1], “TUBB_ + _30688126.23-P1_06 (guide GCGGCAGGACGGTTCTGAGA; listed as DNA, chemistry not fully specified)” had a gamma_day5 of −0.7308, a gamma_day10 of −0.5544 and a relative_activity_day5 of 0.8147. The substance also yielded a relative_activity_day10 in the data set on K562 CRISPRi cells [2] of 0.7922.
Taken in the same sequence, the figures for “TUBB_ + _30688126.23-P1_10 (guide GCGGCAGGAAGGTTCAGAGA; listed as DNA, chemistry not fully specified)” were −0.1978, −0.1451, 0.2205 and 0.2073.
